Assay results taken from patent US8952024B2, “Herbicidal pyrimidone derivatives” (E I du Pont de Nemours and Company, priority 2009, dated 2015).

What was measured:
Experiment in all cases: Test B pre-/postemergence plant response
Assay type in all cases: in vivo
[1] = test system: corn (Zea mays)
Outline: (§1)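 Pre-em in loam/sand; post-em at 1–4 leaf (2–18 cm) in peat mix. Solvent + surfactant formulation. Greenhouse 13–15 d; visual % control vs untreated, 0–100.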

[2] = test system: Surinam grass (Brachiaria decumbens)
Outline: as §1

[3] = test system: downy bromegrass (Bromus tectorum)
Outline: as §1

[4] = test system: green foxtail (Setaria viridis)
Outline: as §1

[5] = test system: goosegrass (Eleusine indica)
Outline: as §1

[6] = test system: woolly cupgrass (Eriochloa villosa)
Outline: as §1

[7] = test system: lambsquarters (Chenopodium album)
Outline: as §1

[8] = test system: giant foxtail (Setaria faberii)
Outline: as §1

[9] = test system: Italian ryegrass (Lolium multiflorum)
Outline: as §1

[10] = test system: bermudagrass (Cynodon dactylon)
Outline: as §1

[11] = test system: blackgrass (Alopecurus myosuroides)
Outline: as §1

[12] = test system: velvetleaf (Abutilon theophrasti)
Outline: as §1

[13] = test system: ragweed (common ragweed, Ambrosia elatior)
Outline: as §1

[14] = test system: yellow nutsedge (Cyperus esculentus)
Outline: as §1

[15] = test system: kochia (Kochia scoparia)
Outline: as §1

[16] = test system: johnsongrass (Sorghum halepense)
Outline: as §1

[17] = test system: large crabgrass (Digitaria sanguinalis)
Outline: as §1

[18] = 31 g ai/ha, postemergence, scale 0 to 100, 0 is no effect, 100 is complete control
[19] = 62 g ai/ha, postemergence, 0 is no effect, 100 is complete control, 13 to 15 days
[20] = Postemergence, 125 g ai/ha, visual rating after 13 to 15 days, scale 0 (no effect) to 100 (complete control)
[21] = Postemergence, 250 g ai/ha, scale 0 to 100 (0 no effect, 100 complete control)

## CCCc1ncc(C(=O)C2=C(O)CCCC2=O)c(=O)n1-c1cccc(C)c1 [Compound 79]
[1]; [18]
  Plant response rating, Corn: 5
[1]; [19]
  Corn plant response rating (0 to 100 scale): 45
[1]; [20]
  Plant response rating, Corn: 60
[1]; [21]
  Plant response rating, Corn: 75
[2]; [18]
  Plant response rating, Surinam Grass: 20
[2]; [19]
  Surinam Grass plant response rating (0 to 100 scale): 45
[2]; [20]
  Plant response rating, Surinam Grass: 75
[2]; [21]
  Plant response rating, Surinam Grass: 90
[3]; [18]
  Plant response rating, Bromegrass, Downy: 5
[3]; [19]
  Bromegrass, Downy plant response rating (0 to 100 scale): 10
[3]; [20]
  Plant response rating, Bromegrass, Downy: 30
[3]; [21]
  Plant response rating, Bromegrass, Downy: 65
[4]; [18]
  Plant response rating, Foxtail, Green: 60
[4]; [19]
  Foxtail, Green plant response rating (0 to 100 scale): 60
[4]; [20]
  Plant response rating, Foxtail, Green: 80
[4]; [21]
  Plant response rating, Foxtail, Green: 98
[5]; [18]
  Plant response rating, Goosegrass: 45
[5]; [19]
  Goosegrass plant response rating (0 to 100 scale): 65
[5]; [20]
  Plant response rating, Goosegrass: 70
[5]; [21]
  Plant response rating, Goosegrass: 80
[6]; [18]
  Plant response rating, Cupgrass, Woolly: 10
[6]; [19]
  Cupgrass, Woolly plant response rating (0 to 100 scale): 40
[6]; [20]
  Plant response rating, Cupgrass, Woolly: 65
[6]; [21]
  Plant response rating, Cupgrass, Woolly: 75
[7]; [18]
  Plant response rating, Lambsquarters: 95
[7]; [19]
  Lambsquarters plant response rating (0 to 100 scale): 98
[7]; [20]
  Plant response rating, Lambsquarters: 100
[7]; [21]
  Plant response rating, Lambsquarters: 100
[8]; [18]
  Plant response rating, Foxtail, Giant: 70
[8]; [19]
  Foxtail, Giant plant response rating (0 to 100 scale): 75
[8]; [20]
  Plant response rating, Foxtail, Giant: 95
[8]; [21]
  Plant response rating, Foxtail, Giant: 95
[9]; [18]
  Plant response rating, Ryegrass, Italian: 20
[9]; [19]
  Ryegrass, Italian plant response rating (0 to 100 scale): 20
[9]; [20]
  Plant response rating, Ryegrass, Italian: 50
[9]; [21]
  Plant response rating, Ryegrass, Italian: 55
[10]; [18]
  Plant response rating, Bermudagrass: 80
[10]; [19]
  Bermudagrass plant response rating (0 to 100 scale): 80
[10]; [20]
  Plant response rating, Bermudagrass: 85
[10]; [21]
  Plant response rating, Bermudagrass: 85
[11]; [18]
  Plant response rating, Blackgrass: 5
[11]; [19]
  Blackgrass plant response rating (0 to 100 scale): 15
[11]; [20]
  Plant response rating, Blackgrass: 30
[11]; [21]
  Plant response rating, Blackgrass: 45
[12]; [18]
  Plant response rating, Velvetleaf: 95
[12]; [19]
  Velvetleaf plant response rating (0 to 100 scale): 98
[12]; [20]
  Plant response rating, Velvetleaf: 98
[12]; [21]
  Plant response rating, Velvetleaf: 100
[13]; [18]
  Plant response rating, Ragweed: 80
[13]; [19]
  Ragweed plant response rating (0 to 100 scale): 85
[13]; [20]
  Plant response rating, Ragweed: 95
[13]; [21]
  Plant response rating, Ragweed: 98
[14]; [18]
  Plant response rating, Nutsedge, Yellow: 25
[14]; [19]
  Nutsedge, Yellow plant response rating (0 to 100 scale): 60
[14]; [20]
  Plant response rating, Nutsedge, Yellow: 70
[14]; [21]
  Plant response rating, Nutsedge, Yellow: 80
[15]; [18]
  Plant response rating, Kochia: 75
[15]; [19]
  Kochia plant response rating (0 to 100 scale): 75
[15]; [20]
  Plant response rating, Kochia: 75
[15]; [21]
  Plant response rating, Kochia: 80
[16]; [18]
  Plant response rating, Johnsongrass: 0
[16]; [19]
  Johnsongrass plant response rating (0 to 100 scale): 65
[16]; [20]
  Plant response rating, Johnsongrass: 70
[16]; [21]
  Plant response rating, Johnsongrass: 75
[17]; [18]
  Plant response rating, Crabgrass, Large: 80
[17]; [19]
  Crabgrass, Large plant response rating (0 to 100 scale): 85
[17]; [20]
  Plant response rating, Crabgrass, Large: 90
[17]; [21]
  Plant response rating, Crabgrass, Large: 95
